Test results as given in patent US10709682B2, “Treatment of tinnitus through modulation of chloride co-transporter NKCC1 in the auditory system” (OTOLANUM AG, priority 2011, dated 2020).
“Also recorded” adds a separate entry of the source.

How the values were obtained:
[1] = tested on: tinnitus; settings: Westerberg et al., 1996 (baclofen); Piccirillo et al., 2007 (gabapentin); cited from earlier work
[2] = tested on: NKCC1 versus KCC2; settings: Blaesse et al., 2009, cited from earlier work
[3] = tested on: tinnitus; settings: cited from earlier work
[4] = tested on: behavioural correlate of tinnitus; settings: chronic tinnitus induced by noise trauma; vigabatrin treatment; cited from earlier work
[5] = tested on: KCC2 expression in cochlear tissue; assay: Real-time PCR for KCC2 expression in cochlear tissue after noise or sham exposure and local treatment; type: in vivo, rat
Method: 20 adult female Wistar rats were anaesthetized as described above for the previous experiments. First, auditory brainstem response (ABR) measurements were performed. As in Experiment 2, they were then exposed in a sound attenuation booth for 1.5 hours to a continuous 10 kHz tone at an intensity of 120 dB SPL (Group A; n×10) or sham exposed in the same setting (Group B; n=10). Animals were treated bilaterally right after noise trauma with either artificial perilymph (AP) or bumetanide (Sigma B3023, Lot 027Ko988). AP was prepared freshly in accordance with Guitton et al., 2003 (140 mM NaCl, 4 mM KCl, 2 mM CaCl2, 2m M MgCl2, 10 mM glucose, 10 mM HePES). Bumetanide (300 μM) was prepared as follows: 50 mg of bumetanide powder was diluted in 6.87 ml AP. This 20 mM stock solution was diluted 1:66 in AP (15.15 μL stock solution and 984.85 μL AP). 5 animals of Group A and 5 animals of Group B received AP (total 10 animals) and 5 animals of Group A and 5 animals of Group B received bumetanide total (10 animals). For the local treatment administration, the fur was removed behind the ears and the bulla exposed in a retro-auricular approach. A small hole was carefully drilled into the bony bulla just above the round window niche (0.6-1 mm in diameter). The mucosa was opened and the region around the round window carefully dried of fluid. Through the hole, a small gel-foam pellet (Gelita Tampon; Braun, Melsungen, Germany) was inserted into the round window niche, 5-8 μl of bumetanide solution or AP were applied on the gel foam by means of a precision pipette with gel loader tips, thus avoiding air bubbles under the gel. […] The hole in the bulla was then covered from the outside with muscular tissue and the wound was sutured with surgical thread (Vicryl, Johnson & Johnson, Norderstedt, Germany). Postoperatively the animals were kept warm with the body temperature being controlled until wake-up. […] For the real-time PCR reaction 12.5 μl of SYBRGreen (QuantiFast Sybr Green, Qiagen), 1 μl Primer Mix, 7.3 μl ddH2O and 4 μl cDNA were used per well. […]

[6] = tested on: inner hair cell ribbon synapses; assay: Count of inner hair cell ribbon synapses after noise or sham exposure and local treatment; type: in vivo, rat; settings: bumetanide 300 μM local at round window, 2 weeks following noise
Method: Ribbon synapses of inner hair cells were counted. Sections were viewed using an Olympus AX70 microscope equipped with epifluorescence illumination (100× objective, NA=1.35) and a motorized z-axis. Images were acquired using a CCD camera and the imaging soft-ware Cell^F (OSIS GmbH, Münster, Germany). For Otoferlin and CtBP2/RIBEYE immunopositive spot counting on cryo-sectioned cochleae were performed through imaging over a distance of 8 μm with the complete coverage of the IHC nucleus and beyond in an image-stack along the z-axis (z-stack). Typically z-stacks consisted of 30 layers with a z-increment of 0.276 µm, for each layer one image per fluorochrome was acquired. Z-stacks were 3-dimensionally deconvoluted using Cell^F's RIDE module with the Nearest Neighbour algorithm (OSIS GmbH, Müster, Germany). 20 adult female Wistar rats were anaesthetized as described above for the previous experiments. First, auditory brainstem response (ABR) measurements were performed. As in Experiment 2, they were then exposed in a sound attenuation booth for 1.5 hours to a continuous 10 kHz tone at an intensity of 120 dB SPL (Group A; n×10) or sham exposed in the same setting (Group B; n=10). Animals were treated bilaterally right after noise trauma with either artificial perilymph (AP) or bumetanide (Sigma B3023, Lot 027Ko988). […] Ribbon synapses of inner hair cells were counted as in Experiment 2.

NCC1(CC(=O)O)CCCCC1 [gabapentin]
Effect on tinnitus [1]: no effects at all

NS(=O)(=O)c1cc(C(=O)O)c(NCc2ccco2)cc1Cl [furosemide]
Potency of blocking NKCC1 versus KCCs [2]: approximately equal potency
Induction of tinnitus and hearing loss ([3]; administered at high doses): induce temporary tinnitus and hearing loss
Suppression of tinnitus ([3]; patients, effects only for tinnitus of cochlear rather than central origin): suppress tinnitus, albeit only in a reversible fashion and not in all patients

NCC(CC(=O)O)c1ccc(Cl)cc1 (stereo not drawn) [baclofen]
Effect on tinnitus [1]: no effects at all

C=CC(N)CCC(=O)O (stereo not drawn) [vigabatrin]
Behavioural correlate of tinnitus [4]: reversibly suppressed

CCCCNc1cc(C(=O)O)cc(S(N)(=O)=O)c1Oc1ccccc1 [bumetanide]
Affinity for NKCC1 versus KCC2 ([2]; Payne et al., 2003): much higher affinity for NKCC1 than for KCC2
KCC2 expression (down-regulation) in noise exposed, bumetanide treated ears versus sham exposed ears ([5]; noise exposed ears (10 kHz, 120 dB SPL, 1.5 h), bumetanide 300 μM local at round window, 15 days following treatment): No such down-regulation
KCC2 expression in noise exposed ears, bumetanide treated versus AP treated ([5]; noise exposed ears, bumetanide 300 μM local at round window, 15 days following treatment, p<0.01): statistically significant difference; also recorded: statistically significantly different
KCC2 expression, bumetanide versus AP treated, sham exposed ears ([5]; sham exposed ears (Group B), bumetanide 300 μM, 5-8 μl on gel foam at round window niche, cochlear tissue 15 days following treatment): no difference
Decline of inner hair cell ribbons in noise exposed ears that received bumetanide versus sham exposed ([6]; midbasal and basal cochlear turns): not significant
Inner hair cell ribbon numbers in noise exposed ears, bumetanide versus AP treated ([6]; noise exposed ears, p<0.02): significant difference; also recorded: reduced loss of inner hair cell ribbons
